Measurements from ChEMBL document CHEMBL1201862, “PubChem BioAssay data set” (2004).
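Grown in 96-well plates, cells were treated for 48 hours with each compound at five concentrations. Insufficient inhibition: endpoint recorded as highest concentration tested. GI50 marks 50% less growth.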 Active and inactive are the calls of the source. Rule as the data show it: active = GI50 up to about 1.1 µM and inactive = higher.

Assays:
Experiment in all cases: NCI anticancer screen, dose series, 48 h
[1] = system: A549
[2] = system: ACHN
[3] = system: HCC 2998
[4] = system: LOX IMVI
[5] = system: MCF7
[6] = system: MDA-MB-231
[7] = system: NCI/ADR-RES
[8] = system: OVCAR-3
[9] = system: OVCAR-4
[10] = system: PC-3
[11] = system: RXF 393
[12] = system: SF-268
[13] = system: SF-295
[14] = system: SF-539
[15] = system: SK-MEL-5
[16] = system: SN12C
[17] = system: SNB-19
[18] = system: SR
[19] = system: SW-620
[20] = system: UACC-62

Compound	GI50 [1]	GI50 [2]	GI50 [3]	GI50 [4]	GI50 [5]	GI50 [6]	GI50 [7]	GI50 [8]	GI50 [9]	GI50 [10]	GI50 [11]	GI50 [12]	GI50 [13]	GI50 [14]	GI50 [15]	GI50 [16]	GI50 [17]	GI50 [18]	GI50 [19]	GI50 [20]
CC(C)(C)OC(=O)NC(Cc1ccccc1)C(=O)OCN1C(=O)C2C3C=CC(C2C1=O)C1C2C(=O)N(COC(=O)C(Cc4ccccc4)NC(=O)OC(C)(C)C)C(=O)C2C31 (stereo not given)	8.28 µM (inactive)	40.6 µM (inactive)	40 µM (inactive)	36.9 µM (inactive)	13.4 µM (inactive)	29.7 µM (inactive)	43 µM (inactive)	63.1 µM (inactive)	37.1 µM (inactive)	29.5 µM (inactive)	22.7 µM (inactive)	38.5 µM (inactive)	34.4 µM (inactive)	42.4 µM (inactive)	28 µM (inactive)	25.5 µM (inactive)	34.3 µM (inactive)	0.176 µM (active)	26.3 µM (inactive)	44.8 µM (inactive)
COC(=O)C1=C(O)CCCC(C2CCCCC(=O)C2C(=O)OC)=C1 (stereo not given)	44.3 µM (inactive)	37.2 µM (inactive)	33.5 µM (inactive)	25.6 µM (inactive)	22.6 µM (inactive)	46.5 µM (inactive)	> 100 µM (inactive)	> 100 µM (inactive)	> 100 µM (inactive)	63.4 µM (inactive)	90.2 µM (inactive)	–	48 µM (inactive)	24.5 µM (inactive)	62.4 µM (inactive)	38.2 µM (inactive)	42.1 µM (inactive)	24.7 µM (inactive)	81.8 µM (inactive)	19.4 µM (inactive)
Cn1c(=S)c2nc(SCc3cccnc3)[nH]c2n(C)c1=O	> 100 µM (inactive)	> 100 µM (inactive)	> 100 µM (inactive)	> 100 µM (inactive)	> 100 µM (inactive)	> 100 µM (inactive)	> 100 µM (inactive)	> 100 µM (inactive)	> 100 µM (inactive)	> 100 µM (inactive)	> 100 µM (inactive)	> 100 µM (inactive)	97.7 µM (inactive)	> 100 µM (inactive)	> 100 µM (inactive)	> 100 µM (inactive)	> 100 µM (inactive)	> 100 µM (inactive)	> 100 µM (inactive)	> 100 µM (inactive)
CC(=O)Oc1cccc2c1C(=O)CCCC2	> 100 µM (inactive)	> 100 µM (inactive)	> 100 µM (inactive)	> 100 µM (inactive)	> 100 µM (inactive)	> 100 µM (inactive)	> 100 µM (inactive)	> 100 µM (inactive)	> 100 µM (inactive)	> 100 µM (inactive)	> 100 µM (inactive)	> 100 µM (inactive)	> 100 µM (inactive)	> 100 µM (inactive)	> 100 µM (inactive)	> 100 µM (inactive)	> 100 µM (inactive)	> 100 µM (inactive)	> 100 µM (inactive)	> 100 µM (inactive)
O=C1/C(=C/c2cccc([N+](=O)[O-])c2)N=C(c2ccccc2)N1c1nc2c(Cl)cc(Cl)cc2s1	21.1 µM (inactive)	27.7 µM (inactive)	27.5 µM (inactive)	16.4 µM (inactive)	23.9 µM (inactive)	29.4 µM (inactive)	28.4 µM (inactive)	17.1 µM (inactive)	24 µM (inactive)	24 µM (inactive)	27.9 µM (inactive)	42.6 µM (inactive)	33.6 µM (inactive)	22.8 µM (inactive)	16.9 µM (inactive)	22.4 µM (inactive)	23.1 µM (inactive)	16.8 µM (inactive)	25.5 µM (inactive)	29.2 µM (inactive)
CC[C@H](C)[C@H]1NC(=O)[C@@H](NC(=O)[C@@H](CC(C)C)N(C)C(=O)C2CCCN2C(=O)[C@H](C)O)[C@@H](C)OC(=O)[C@@H]2Cc3ccccc3CN2C(=O)[C@@H]2CCCN2C(=O)[C@H](CC(C)C)NC(=O)[C@@H](C)C(=O)[C@H](C(C)C)OC(=O)C[C@@H]1O (stereo not given in full)	0.434 µM (active)	1.55 µM (inactive)	0.154 µM (active)	0.361 µM (active)	0.0596 µM (active)	1.04 µM (active)	> 100 µM (inactive)	0.286 µM (active)	0.641 µM (active)	0.317 µM (active)	0.802 µM (active)	0.327 µM (active)	1.06 µM (active)	0.267 µM (active)	0.164 µM (active)	0.271 µM (active)	0.207 µM (active)	0.0811 µM (active)	0.555 µM (active)	0.106 µM (active)
COc1ccc2nc3c4c(nccc4c2c1)-c1ncccc1C3=O	0.113 µM (active)	0.0116 µM (active)	0.209 µM (active)	0.00982 µM (active)	0.021 µM (active)	0.494 µM (active)	0.201 µM (active)	0.005 µM (active)	0.439 µM (active)	0.0317 µM (active)	0.119 µM (active)	0.0826 µM (active)	0.08 µM (active)	0.0769 µM (active)	0.0282 µM (active)	0.0508 µM (active)	0.0656 µM (active)	0.00542 µM (active)	0.0121 µM (active)	0.048 µM (active)
CSCCC(NCc1c(O)ccc2ccc(=O)oc12)C(=O)O (stereo not given)	> 100 µM (inactive)	> 100 µM (inactive)	> 100 µM (inactive)	> 100 µM (inactive)	> 100 µM (inactive)	> 100 µM (inactive)	> 100 µM (inactive)	> 100 µM (inactive)	> 100 µM (inactive)	> 100 µM (inactive)	> 100 µM (inactive)	> 100 µM (inactive)	> 100 µM (inactive)	> 100 µM (inactive)	61.5 µM (inactive)	> 100 µM (inactive)	> 100 µM (inactive)	> 100 µM (inactive)	> 100 µM (inactive)	> 100 µM (inactive)
CC1=NN(C(=O)CSc2nc3ccc(I)cc3c(=O)n2Cc2ccccc2)C(=O)C1	34 µM (inactive)	28.8 µM (inactive)	39.1 µM (inactive)	16.4 µM (inactive)	22.8 µM (inactive)	16.9 µM (inactive)	20.9 µM (inactive)	27.9 µM (inactive)	24.2 µM (inactive)	17.2 µM (inactive)	25.9 µM (inactive)	21.4 µM (inactive)	27.3 µM (inactive)	35.8 µM (inactive)	21.7 µM (inactive)	29.3 µM (inactive)	33.7 µM (inactive)	16.9 µM (inactive)	46.5 µM (inactive)	26.4 µM (inactive)
CCCCC(=O)Oc1ccc2c(C)cc(=O)oc2c1	> 100 µM (inactive)	> 100 µM (inactive)	88.9 µM (inactive)	> 100 µM (inactive)	> 100 µM (inactive)	> 100 µM (inactive)	> 100 µM (inactive)	> 100 µM (inactive)	> 100 µM (inactive)	> 100 µM (inactive)	> 100 µM (inactive)	> 100 µM (inactive)	> 100 µM (inactive)	> 100 µM (inactive)	> 100 µM (inactive)	> 100 µM (inactive)	> 100 µM (inactive)	> 100 µM (inactive)	> 100 µM (inactive)	> 100 µM (inactive)
CN(C)c1ccc(/C=C/C(=O)CC(=O)/C=C/c2ccc(N(C)C)cc2)cc1	> 100 µM (inactive)	> 100 µM (inactive)	> 100 µM (inactive)	15.7 µM (inactive)	> 100 µM (inactive)	85.1 µM (inactive)	> 100 µM (inactive)	65.3 µM (inactive)	> 100 µM (inactive)	> 100 µM (inactive)	> 100 µM (inactive)	> 100 µM (inactive)	> 100 µM (inactive)	> 100 µM (inactive)	> 100 µM (inactive)	> 100 µM (inactive)	> 100 µM (inactive)	36.2 µM (inactive)	> 100 µM (inactive)	56.4 µM (inactive)
CCOC(=O)c1cc(C2CCN(Cc3ccccc3)C2=O)c(C(=O)C(=[N+]=[N-])C(C)=O)[nH]1 (stereo not given)	> 100 µM (inactive)	–	> 100 µM (inactive)	> 100 µM (inactive)	> 100 µM (inactive)	> 100 µM (inactive)	> 100 µM (inactive)	> 100 µM (inactive)	> 100 µM (inactive)	> 100 µM (inactive)	> 100 µM (inactive)	> 100 µM (inactive)	> 100 µM (inactive)	> 100 µM (inactive)	> 100 µM (inactive)	> 100 µM (inactive)	> 100 µM (inactive)	> 100 µM (inactive)	> 100 µM (inactive)	> 100 µM (inactive)
CC1=NN(c2cccc(Cl)c2)C2(SCC(=O)N2c2nc3ccccc3s2)C1=CC=Cc1ccccc1 (stereo not given)	–	22.3 µM (inactive)	32.3 µM (inactive)	35.3 µM (inactive)	25.5 µM (inactive)	27.9 µM (inactive)	34.8 µM (inactive)	39.6 µM (inactive)	37.8 µM (inactive)	29.7 µM (inactive)	25.5 µM (inactive)	31.6 µM (inactive)	35.2 µM (inactive)	44.1 µM (inactive)	18.9 µM (inactive)	–	–	16.4 µM (inactive)	26.3 µM (inactive)	–
O=C(O)c1cccc2c1/C(=N/Nc1ccccc1)CC2	–	> 100 µM (inactive)	> 100 µM (inactive)	> 100 µM (inactive)	45.1 µM (inactive)	> 100 µM (inactive)	> 100 µM (inactive)	> 100 µM (inactive)	> 100 µM (inactive)	> 100 µM (inactive)	> 100 µM (inactive)	> 100 µM (inactive)	17.2 µM (inactive)	> 100 µM (inactive)	> 100 µM (inactive)	–	–	> 100 µM (inactive)	> 100 µM (inactive)	–
